In brackets after ≈: the same amount, converted by molar mass.
Key:
[1] = test system: Trypanosoma brucei rhodesiense STIB 900; assay: In vitro assay for Trypanosoma brucei rhodesiense (resazurin); format: cell-based; details: Trypanosoma brucei; STIB 900 blood stream forms, 72 h; means of two independent determinations ± deviation from the mean; read-out: IC50 Trypanosoma brucei rhodesiense
Description: Trypanosoma brucei rhodesiense STIB 900 strain, isolated in 1982 from a human patient in Tanzania and, after several mouse passages, cloned and adapted to axenic culture conditions, was used in this assay. Minimum essential medium (50 μL) supplemented with 25 mM HEPES, 1 g/L additional glucose, 1% MEM non-essential amino acids (100×), 0.2 mM 2-mercaptoethanol, 1 mM Na-pyruvate, and 15% heat inactivated horse serum was added to each well of a 96 well microtiter plate. Serial drug dilutions of seven 3-fold dilution steps covering a range from 90 to 0.123 μg/mL were prepared, and then 4 × 10^4 blood stream forms of T. b. rhodesiense STIB 900 in 50 μL were added to each well and the plate was incubated at 37 °C under a 5% CO2 atmosphere for 72 h. Resazurin solution (resazurin, 12.5 mg in 100 mL double-distilled water) (10 μL) was then added to each well and incubated for a further 2–4 h. At the end of the assay, the plates were read with a Spectramax Gemini XS microplate fluorometer (Molecular Devices Cooperation, Sunnyvale, CA, USA) using an excitation wavelength of 536 nm and an emission wavelength of 588 nm. Data were analyzed using the microplate reader software Softmax Pro (Molecular Devices Cooperation, Sunnyvale, CA, USA). Melarsoprol was used as standard drug.

[2] = test system: T. cruzi Tulahuen strain C2C4; assay: In vitro assay for Trypanosoma cruzi in L-6 cells (β-galactosidase/CPRG); format: cell-based; details: Trypanosoma cruzi, L6; Tulahuen C2C4 in L-6 cells, 96 h; highest concentration tested 90 μg/mL; means of two determinations ± deviation
Description: Rat skeletal myoblasts (L-6 cells) were seeded in 96 well microtiter plates (2000 cells/well) in 100 μL RPMI 1640 medium with 10% FBS and 2 mM L-glutamine for 24 h. After that, the medium was removed and replaced by 100 μL per well containing 5000 trypomastigote forms of T. cruzi Tulahuen strain C2C4, containing the β-galactosidase (Lac Z) gene. The medium was removed from the wells after 48 h, and replaced with 100 μL fresh medium with or without a serial drug dilution of seven 3-fold dilution steps covering a range from 90 to 0.123 μg/mL. After 96 h of incubation, the plates were inspected under an inverted microscope to assure growth of the controls and sterility, after which the substrate CPRG/Nonidet ([…]) was added to all wells. A color reaction developed within 2–6 h and could be read photometrically at 540 nm. Data were transferred into the graphic program Softmax Pro (Molecular Devices Cooperation, Sunnyvale, CA, USA) and the IC50 values were calculated from the sigmoidal dose response curves. Benznidazole was the reference drug.

[3] = test system: L. donovani (strain MHOM/ET/67/L82) amastigotes; assay: In vitro assay for Leishmania donovani axenic amastigotes (resazurin); format: cell-based; details: axenic amastigotes, 72 h, means of two determinations ± deviation, read-out: IC50 Leishmania donovani
Description: Amastigotes of L. donovani (strain MHOM/ET/67/L82) were grown in axenic culture at 37 °C in SM medium at pH 5.4 supplemented with 10% heat-inactivated FBS under an atmosphere of 5% CO2. Culture medium (100 μL) with 10^5 amastigotes from axenic culture with or without a serial drug dilution was seeded in 96 well microtiter plates. Serial drug was prepared covering a range of dilutions from 90 to 0.123 μg/mL. After 72 h of incubation, the plates were inspected under an inverted microscope to assure growth of the controls and sterile conditions. Subsequently, 10 μL resazurin solution (12.5 mg resazurin dissolved in 100 mL double-distilled water) was added to each well and the plates were incubated for another 2 h. The plates were then read with a Spectramax Gemini XS microplate fluorometer (Molecular Devices Cooperation, Sunnyvale, CA, USA) using an excitation wavelength of 536 nm and an emission wavelength of 588 nm. Data were analyzed using the software Softmax Pro (Molecular Devices Cooperation, Sunnyvale, CA, USA). A decrease of fluorescence (=inhibition) was expressed as percentage of the fluorescence of control cultures and plotted against the drug concentrations. From the sigmoidal inhibition curves, the IC50 values were calculated. Miltefosine was used as a reference drug.

P. falciparum K1 strain = assay: In vitro assay for Plasmodium falciparum ([3H]-hypoxanthine incorporation); format: cell-based; details: K1 strain (chloroquine- and pyrimethamine-resistant), erythrocytic stages, means of two determinations ± deviation, read-out: IC50 Plasmodium falciparum
Description: Activity against the erythrocytic stages of P. falciparum was determined using an in vitro modified [^3H]-hypoxanthine incorporation assay, using the chloroquine- and pyrimethamine-resistant K1 strain [68]. Compounds were dissolved in DMSO at 10 mg/mL and further diluted in medium before added to parasite cultures incubated in RPMI 1640 medium without hypoxanthine, supplemented with HEPES (5.94 g/l), NaHCO3 (2.1 g/L), neomycin (100 U/mL), AlbumaxR (5 g/L), and washed human red cells A+ at 2.5% haematocrit (0.3% parasitaemia). Serial drug dilutions of seven 3-fold dilution steps covering a range from 90 to 0.123 μg/mL were prepared. The 96 well plates were incubated in a humidified atmosphere at 37 °C; 4% CO2, 3% O2, 93% N2. After 48 h 50 μL of ^3H-hypoxanthine (=0.5 μCi) was added to each well of the plate. The plates were incubated for a further 24 h under the same conditions. The plates were then harvested with a Betaplate™ cell harvester (Wallac, Zurich, Switzerland), and the red blood cells transferred onto a glass fiber filter then washed with distilled water. The dried filters were inserted into a plastic foil with 10 mL of scintillation fluid, and counted in a Betaplate™ liquid scintillation counter (Wallac, Zurich, Switzerland). […] IC50 values were calculated from the sigmoidal inhibition curves using Microsoft Excel. Chloroquine was used as positive control drug.

[4] = In vitro assay for cytotoxicity on mammalian cells (resazurin); format: cell-based, rat; details: rat skeletal myoblasts, 72 h; means of two determinations ± deviation; read-out: IC50 Cytotoxicity L6 cells
Description: Assays were performed in 96 well microtiter plates (4 × 10^4 L6 cells/well), each well containing 100 μL of RPMI 1640 medium supplemented with 1% L-glutamine (200 mM) and 10% FBS. L6 cells are a primary cell line derived from rat skeletal myoblasts. Serial drug dilutions of seven 3-fold dilution steps covering a range from 90 to 0.123 μg/mL were prepared. After 72 h of incubation, the plates were inspected under an inverted microscope to assure growth of the controls and sterile conditions. Resazurin solution (10 μL) (12.5 mg resazurin in 100 mL double-distilled water) was then added to each well and the plates incubated for another 2 h. The plates were then read with a Spectramax Gemini XS microplate fluorometer (Molecular Devices Cooperation, Sunnyvale, CA, USA) using an excitation wavelength of 536 nm and an emission wavelength of 588 nm. Data were analyzed using the microplate reader software Softmax Pro (Molecular Devices Cooperation, Sunnyvale, CA, USA). From the sigmoidal inhibition curves, the IC50 values were calculated. Podophyllotoxin was the positive control.

T. evansi = test system: T. evansi; parameters: method as in PMID 26773165; details: cited from earlier work

For `CC1=CC=C(C(C)C)CC1` [α-Terpinene], which IC50 [1] is on record?
The IC50 was 3.1 ± 1.6 µg/mL (≈ 22.8 µM).

What about the IC50 [2] of the same molecule?
Its IC50 is 49.1 ± 7.3 µg/mL (≈ 360 µM).

What about the IC50 [3] of the same molecule?
Its IC50 is 10.5 ± 1.7 µg/mL (≈ 77.1 µM).

And the IC50 (P. falciparum K1 strain)?
Its IC50 is 3.7 ± 1.5 µg/mL (≈ 27.2 µM).

And the IC50 [4]?
Its IC50 is 84.7 ± 4.3 µg/mL (≈ 622 µM).

What about the “animal longevity of T. evansi-infected mice (in words)” value (T. evansi) of the same molecule?
The value was “extend animal longevity”.
